Assay results taken from ChEMBL document CHEMBL3885861, “Open TG-GATES”.

Organism: Rattus norvegicus
Experiment: Open TG-GATES - Regimen: Single
Assay type: toxicity, organism-based, Sprague-Dawley
Design: regimen Single, gender Male, age 6 weeks
Settings: in vivo, po, route gavage; for TC / TG / TP / gamma-GTP / ALT / AST / CRE / Ca / DBIL / GLC / K / LDH / Na / PL / RALB / TBIL / Cl / ALP: tissue Plasma; for Bas / Eos / Fbg / Hb / Ht / Lym / MCHC / MCV / Mono / PT / Plat / RBC / WBC / APTT: tissue Blood; for KIDNEY_L / KIDNEY_R / KIDNEY_TOTAL: tissue Kidney; for LIVER: tissue Liver
[1] = 240 mg/kg, 3 h, dose level Middle
[2] = 240 mg/kg, 6 h, dose level Middle
[3] = 240 mg/kg, 9 h, dose level Middle
[4] = 240 mg/kg, 24 h, dose level Middle
[5] = 800 mg/kg, 3 h, dose level High
[6] = 800 mg/kg, 6 h, dose level High
[7] = 800 mg/kg, 9 h, dose level High
[8] = 800 mg/kg, 24 h, dose level High

COc1ccc([C@@H]2Sc3ccccc3N(CCN(C)C)C(=O)[C@@H]2OC(C)=O)cc1 [DILTIAZEM]
TC (80 mg/kg, 24 h, dose level Low): 78.2 mg/dL
TG (80 mg/kg, 24 h, dose level Low): 67.8 mg/dL
TP (80 mg/kg, 24 h, dose level Low): 5.5 g/dL
gamma-GTP (80 mg/kg, 24 h, dose level Low): 1 IU/L
TERMINAL_BW [1]: 186.7 g
Bas [1]: 0%
Eos [1]: 0.8%
Fbg [1]: 284.8 mg/dL
Hb [1]: 12.6 g/dL
Ht [1]: 38.9%
Lym [1]: 75%
MCHC [1]: 32.3%
MCV [1]: 65.9 fL
Mono [1]: 3.2%
PT [1]: 14.7 s
Plat [1]: 119.4 x10_4/uL
RBC [1]: 588.8 x10_4/ul
WBC [1]: 87.8 x10_2/uL
KIDNEY_L [1]: 0.9 g
KIDNEY_R [1]: 0.9 g
KIDNEY_TOTAL [1]: 1.7 g
LIVER [1]: 8.4 g
ALT [1]: 45.2 IU/L
AST [1]: 84 IU/L
CRE [1]: 0.2 mg/dL
Ca [1]: 10.8 mg/dL
DBIL [1]: 0.012 mg/dL
GLC [1]: 186.4 mg/dL
K [1]: 4.4 meq/L
LDH [1]: 70.4 IU/L
Na [1]: 142 meq/L
PL [1]: 136.8 mg/dL
RALB [1]: 2.5 g/dL
TBIL [1]: 0.03 mg/dL
TC [1]: 75 mg/dL
TG [1]: 58 mg/dL
TP [1]: 5.2 g/dL
gamma-GTP [1]: 1 IU/L
TERMINAL_BW [2]: 187.5 g
Bas [2]: 0%
Eos [2]: 0.8%
Fbg [2]: 303.8 mg/dL
Ht [2]: 40.7%
Lym [2]: 80%
MCHC [2]: 32%
MCV [2]: 67.1 fL
Mono [2]: 3%
PT [2]: 14.7 s
Plat [2]: 120.8 x10_4/uL
RBC [2]: 608.2 x10_4/ul
WBC [2]: 79.2 x10_2/uL
KIDNEY_L [2]: 0.9 g
KIDNEY_R [2]: 0.8 g
KIDNEY_TOTAL [2]: 1.7 g
LIVER [2]: 8.1 g
ALT [2]: 44.8 IU/L
AST [2]: 73.4 IU/L
CRE [2]: 0.2 mg/dL
Ca [2]: 10.9 mg/dL
Cl [2]: 106.6 meq/L
DBIL [2]: 0.014 mg/dL
GLC [2]: 182.8 mg/dL
K [2]: 4.2 meq/L
LDH [2]: 54.4 IU/L
Na [2]: 142.8 meq/L
PL [2]: 153.6 mg/dL
RALB [2]: 2.6 g/dL
TBIL [2]: 0.034 mg/dL
TC [2]: 86.2 mg/dL
TG [2]: 47.2 mg/dL
TP [2]: 5.3 g/dL
gamma-GTP [2]: 1.2 IU/L
TERMINAL_BW [3]: 182 g
APTT [3]: 17.3 s
Bas [3]: 0.2%
Eos [3]: 0.8%
Fbg [3]: 305.8 mg/dL
Hb [3]: 12.9 g/dL
Ht [3]: 40.1%
Lym [3]: 78.6%
MCHC [3]: 32.2%
MCV [3]: 67 fL
Mono [3]: 2.6%
PT [3]: 14.8 s
Plat [3]: 121.1 x10_4/uL
RBC [3]: 599.4 x10_4/ul
WBC [3]: 83.9 x10_2/uL
KIDNEY_L [3]: 0.9 g
KIDNEY_R [3]: 0.9 g
KIDNEY_TOTAL [3]: 1.7 g
LIVER [3]: 7.9 g
ALT [3]: 41.8 IU/L
AST [3]: 71.8 IU/L
CRE [3]: 0.1 mg/dL
Ca [3]: 10.7 mg/dL
Cl [3]: 105.6 meq/L
DBIL [3]: 0.012 mg/dL
GLC [3]: 171.6 mg/dL
K [3]: 4.1 meq/L
LDH [3]: 50.8 IU/L
Na [3]: 143 meq/L
PL [3]: 150.4 mg/dL
RALB [3]: 2.5 g/dL
TBIL [3]: 0.028 mg/dL
TC [3]: 82 mg/dL
TG [3]: 45.8 mg/dL
TP [3]: 5.2 g/dL
gamma-GTP [3]: 1 IU/L
TERMINAL_BW [4]: 196.9 g
Bas [4]: 0%
Eos [4]: 1%
Fbg [4]: 271.8 mg/dL
Hb [4]: 13 g/dL
Ht [4]: 39.6%
Lym [4]: 75.6%
MCHC [4]: 32.9%
MCV [4]: 64.6 fL
Mono [4]: 2.8%
PT [4]: 14.8 s
Plat [4]: 120 x10_4/uL
RBC [4]: 614.2 x10_4/ul
WBC [4]: 85.8 x10_2/uL
KIDNEY_L [4]: 0.9 g
KIDNEY_R [4]: 0.9 g
KIDNEY_TOTAL [4]: 1.8 g
LIVER [4]: 9.5 g
ALT [4]: 51 IU/L
AST [4]: 76.2 IU/L
CRE [4]: 0.2 mg/dL
Ca [4]: 11.2 mg/dL
Cl [4]: 106.8 meq/L
DBIL [4]: 0.018 mg/dL
GLC [4]: 173.6 mg/dL
K [4]: 4.2 meq/L
LDH [4]: 82.4 IU/L
Na [4]: 144.4 meq/L
PL [4]: 150.4 mg/dL
RALB [4]: 2.7 g/dL
TBIL [4]: 0.022 mg/dL
TC [4]: 81.2 mg/dL
TG [4]: 95.8 mg/dL
TP [4]: 5.5 g/dL
gamma-GTP [4]: 1.2 IU/L
TERMINAL_BW [5]: 189.3 g
Bas [5]: 0%
Eos [5]: 0.4%
Fbg [5]: 277.6 mg/dL
Hb [5]: 12.7 g/dL
Ht [5]: 39.2%
Lym [5]: 69.6%
MCHC [5]: 32.5%
MCV [5]: 65.1 fL
Mono [5]: 4.4%
PT [5]: 14.6 s
Plat [5]: 121.1 x10_4/uL
RBC [5]: 601.6 x10_4/ul
WBC [5]: 95.2 x10_2/uL
KIDNEY_L [5]: 0.8 g
KIDNEY_R [5]: 0.9 g
KIDNEY_TOTAL [5]: 1.7 g
LIVER [5]: 8.3 g
ALT [5]: 52.6 IU/L
AST [5]: 92 IU/L
CRE [5]: 0.2 mg/dL
Ca [5]: 10.7 mg/dL
Cl [5]: 103.8 meq/L
DBIL [5]: 0.008 mg/dL
GLC [5]: 193 mg/dL
K [5]: 4.4 meq/L
LDH [5]: 64.4 IU/L
Na [5]: 140.8 meq/L
PL [5]: 137.2 mg/dL
RALB [5]: 2.5 g/dL
TBIL [5]: 0.028 mg/dL
TC [5]: 76.8 mg/dL
TG [5]: 48.4 mg/dL
TP [5]: 5.2 g/dL
gamma-GTP [5]: 1 IU/L
TERMINAL_BW [6]: 185.7 g
APTT [6]: 17.5 s
Bas [6]: 0.4%
Eos [6]: 0.8%
Fbg [6]: 311 mg/dL
Hb [6]: 13.3 g/dL
Ht [6]: 41.5%
Lym [6]: 77.6%
MCHC [6]: 32.1%
MCV [6]: 66 fL
Mono [6]: 3.2%
PT [6]: 14.7 s
Plat [6]: 126.6 x10_4/uL
RBC [6]: 629 x10_4/ul
WBC [6]: 95.6 x10_2/uL
KIDNEY_L [6]: 0.8 g
KIDNEY_R [6]: 0.8 g
KIDNEY_TOTAL [6]: 1.7 g
LIVER [6]: 7.8 g
ALT [6]: 45 IU/L
AST [6]: 74.6 IU/L
CRE [6]: 0.2 mg/dL
Ca [6]: 10.7 mg/dL
DBIL [6]: 0.008 mg/dL
GLC [6]: 176 mg/dL
K [6]: 4 meq/L
LDH [6]: 59.2 IU/L
Na [6]: 143 meq/L
PL [6]: 158.8 mg/dL
RALB [6]: 2.5 g/dL
TBIL [6]: 0.032 mg/dL
TC [6]: 91.8 mg/dL
TG [6]: 40.6 mg/dL
TP [6]: 5.2 g/dL
gamma-GTP [6]: 1 IU/L
TERMINAL_BW [7]: 185.3 g
Bas [7]: 0%
Eos [7]: 0.8%
Fbg [7]: 316.2 mg/dL
Hb [7]: 12.6 g/dL
Ht [7]: 38.6%
Lym [7]: 74.8%
MCHC [7]: 32.6%
MCV [7]: 62.9 fL
Mono [7]: 2.8%
PT [7]: 14.7 s
Plat [7]: 132.9 x10_4/uL
RBC [7]: 613 x10_4/ul
WBC [7]: 97 x10_2/uL
KIDNEY_L [7]: 0.8 g
KIDNEY_R [7]: 0.8 g
KIDNEY_TOTAL [7]: 1.6 g
LIVER [7]: 7.2 g
ALP [7]: 1763.8 IU/L
ALT [7]: 48.4 IU/L
AST [7]: 81.2 IU/L
CRE [7]: 0.2 mg/dL
Ca [7]: 10.4 mg/dL
Cl [7]: 105.8 meq/L
DBIL [7]: 0.01 mg/dL
GLC [7]: 170.2 mg/dL
K [7]: 4.2 meq/L
LDH [7]: 53.6 IU/L
Na [7]: 142.4 meq/L
PL [7]: 144.8 mg/dL
RALB [7]: 2.6 g/dL
TBIL [7]: 0.026 mg/dL
TC [7]: 78.4 mg/dL
TG [7]: 59 mg/dL
TP [7]: 5.3 g/dL
gamma-GTP [7]: 1.2 IU/L
TERMINAL_BW [8]: 195.5 g
Bas [8]: 0%
Eos [8]: 0.8%
Fbg [8]: 299 mg/dL
Ht [8]: 39.9%
Lym [8]: 76.6%
MCHC [8]: 33%
MCV [8]: 64.4 fL
Mono [8]: 4.4%
PT [8]: 15 s
Plat [8]: 125.7 x10_4/uL
RBC [8]: 621.2 x10_4/ul
WBC [8]: 83.8 x10_2/uL
KIDNEY_L [8]: 0.9 g
KIDNEY_R [8]: 0.9 g
KIDNEY_TOTAL [8]: 1.7 g
LIVER [8]: 9.3 g
ALP [8]: 2052.4 IU/L
ALT [8]: 41.2 IU/L
AST [8]: 66.6 IU/L
CRE [8]: 0.2 mg/dL
Ca [8]: 11.1 mg/dL
Cl [8]: 107.6 meq/L
DBIL [8]: 0.02 mg/dL
GLC [8]: 168.6 mg/dL
K [8]: 4.3 meq/L
LDH [8]: 87.2 IU/L
Na [8]: 144 meq/L
PL [8]: 144.8 mg/dL
RALB [8]: 2.7 g/dL
TBIL [8]: 0.018 mg/dL
TC [8]: 77.4 mg/dL
TG [8]: 108.6 mg/dL
TP [8]: 5.6 g/dL
gamma-GTP [8]: 1 IU/L
